Test [1] addresses T1, β-adrenoreceptor (β1) (Rattus norvegicus, UniProt P18090).
T1 construct: The right and left atria were then separated; from tissue; host or cells: isolated rat right atrium (spontaneously beating) and left atrium (electrically paced)
Nature of the test: Isolated right atrium, L-isoproterenol-induced heart rate increase (pA2). Details: species or system Wistar rat. The note with it: for β1/β2: from pA2 difference right atrium vs tracheal; for β1 Right Atrium (Slope): slope of Schild regression; for β1 Value of pA2 Right Atrium: vs L-isoproterenol, Schild plot. The protocol: The right and left atria were then separated. The spontaneously-beating right atria was clipped on both end by heart shaped clips, where one end was fixed at the bottom of 10 ml of tissue bath made of physiological saline solution, and temperature maintained at 37° C. The other end of the atria was connected to a force transducer, and isometric contractions and beating rate of the right atria were recorded by COULBOURN AT-High-Speed VideoFigure. After the samples were given 250 mg of contractions and reach equilibrium the following experiments were carried out: • (a) β-adrenoceptor blocking action
Cumulative administration interval was when the previous concentration reached its greatest effect, the next concentration would be immediately given.
The equation is as follows: pA2=−Log KB Log(DRADJ−1)=nlog[B]−LogKB [formula]
[B] Test compound concentration in moles • KB: equilibrium dissociation constant • n: value of slope DR: test EC50 divided by control EC50 • CF: EC50 of second or third control groups divided by EC50 of first control group (c) Effect of Compound on the Increase of Spontaneous Beating in Right Atrium Caused by CaCl2

The target in test [2] is T1, β-adrenoreceptor (β1). Nature of the test: Isolated left atrium, L-isoproterenol-induced contractility increase (pA2). The note with it: for β1 Left Atrium (Slope): slope of Schild regression; for β1 Value of pA2 Left Atrium: vs L-isoproterenol, electrically stimulated. Also on record: species or system Wistar rat. The protocol:
The inspontaneously-beating left atrial tissue was obtained from rat's isolated right atrial tissue experiments. […] The contraction rate was 1 Hz and the resting tension 0.5 gm. After 60 minutes of equilibration, the following experiments were performed:
(a) Completion of cumulative concentration-response curve: similar to experimental method on isolated right atrium;
(b) Calculation of pA2 value: similar to calculation method on isolated right atrium.

The nature of test [3]: Heart rate and blood pressure in living rat. The note with it: 1 mg/kg via femoral vein, anaesthetized rat. In kind it is in vivo, Wistar rats. From the text: Male Wistar rats, weighing 200˜300 g were abdominal anaesthetized with pentobarbital sodium. Tracheal was cannulated to maintain normal respiration. Polyethylene tube was inserted into the left femoral vein to facilitate drug administration. A 3-way stopcock was used, with one end connected to a syringe for drug injection, while the other end was connected to the syringe filled with physiological saline. The latter was used to prevent residual drugs in the polyethylene tube after injection, which would affect experimental accuracy.
The right femoral artery was also inserted with polyethylene, and a 3-way stopcock was used too, where one end was connected to heparin solution to prevent embolism. The other end was connected to a Disposable Diaphragm Dome, TA1019, and linked to a transducer. Through an amplifier, a recorder recorded the overall and average arterial pressure; heart rate to evaluate the effect of drug on blood pressure and heart rate.

Another test deals with T2, β2 (Cavia porcellus, UniProt Q8K4Z4).
T2 construct: a portion of tracheal approximately 4 cm long was removed; from tissue; host or cells: isolated trachea of reserpine-pretreated guinea pigs
Nature of the test: Guinea pig's isolated tracheal, L-isoproterenol relaxation of carbachol contraction (pA2). The note with it: for β2 Tracheal (slope): slope of Schild regression; for β2 Value of pA2 Tracheal: vs L-isoproterenol, carbachol 10^−6 M contraction. The procedure:
Guinea pigs of weight between 300˜500 gm were used. […] After the guinea pigs were sacrificed, a slit was made along the neck, and a portion of tracheal approximately 4 cm long was removed. […] The two ends of the tracheal were clamped with frog-heart shaped clamps, one end was fixed at the bottom of tissue bath filled with 20 ml of Kreb's solution, maintained at 37° C., while the other end was connected to a force transducer. Through a COULBOURN AT-High-Speed Videograph, long isometric contractions were recorded. After the sample was given 1.5 gm of tension and equilibrated, the following experiments were performed:
Then the tracheal was repeatedly washed with Kreb's solution for 20 minutes and 10−6 M of carbochol was added to cause contraction in the guinea pig's tracheal. […] This is the test group.
(b) Calculation of pA2: similar to the calculation method for isolated right atrium experiment.

The next test relates to Calcium. Nature of the test: Calcium antagonism (pKCa^−1, Table 2).
A further test concerns thoracic aorta. Nature of the test: Isolated thoracic aorta contraction caused by 75 mM KCl. Also on record: species or system Wistar rat. The note with it: 10^−8M; 75 mM KCl contraction. The procedure:
After sacrificing Wistar rat of weight between 300-500 gm, the thoracic aorta was immediately removed and placed in cold Kreb's solution. The fatty connecting tissue surrounding the vessel wall was removed and the thoracic aorta was cut into rings of length 5 mm. The two ends of each ring was pieced and fixed with “Z” shaped platinum wires. […] The sample was given 1 gm of tension and equilibrated for 60 minutes before the following experiments were carried out:
After thoracic aorta had reached equilibrium in the tissue trough, the normal Kreb's solution in the trough was replaced with 75 mM KCl solution to induce vasoconstriction. When the results had been recorded for at least 35 minutes, the aorta was repeatedly rinsed with normal Kreb's solution. After the aorta had re-equilibrated and at least rested for 60 minutes, different concentrations (10^−8, 10^−7, 10^−6, and 10^−5M) of compound 1 were separately added. 30 minutes later, 75 mM KCl was added again to induce vasoconstriction. This method was used to compare the differences in contraction induced by 75 mM KCl on thoracic aorta pre-treated and non-treated with compound 1.
0.1 μM of BayK8644 was first added into the tissue trough. 10 minutes later, 75 mM of concentrated Potassium solution was added to induce thoracic aorta contraction. When vasoconstriction had reached stability, different concentrations of (10^−8, 10^−7, 10^−6, and 10^−5M) compound 1 were separately added. The effects of aorta contraction induced by concentrated Potassium solution were observed.

Results on seven molecules are retold here after patent US20050009886A1, “1,4-Dihydropyridine derivative with a guaiacoxypropanolamine and/or phenoxypropanolamine moiety” (priority 1998, published 2005).

T1 sequence (P18090 whole entry): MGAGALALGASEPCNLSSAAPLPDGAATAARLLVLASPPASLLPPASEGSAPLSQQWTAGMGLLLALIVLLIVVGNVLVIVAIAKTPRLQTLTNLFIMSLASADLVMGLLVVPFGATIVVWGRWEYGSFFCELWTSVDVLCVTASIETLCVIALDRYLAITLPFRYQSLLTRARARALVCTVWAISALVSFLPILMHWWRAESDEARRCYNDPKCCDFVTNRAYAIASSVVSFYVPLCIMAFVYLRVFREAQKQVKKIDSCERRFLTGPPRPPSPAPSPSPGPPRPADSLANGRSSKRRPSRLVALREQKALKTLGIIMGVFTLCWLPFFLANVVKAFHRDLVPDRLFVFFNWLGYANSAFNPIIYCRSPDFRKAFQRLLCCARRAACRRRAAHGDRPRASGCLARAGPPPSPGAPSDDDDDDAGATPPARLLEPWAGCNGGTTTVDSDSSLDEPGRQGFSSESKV
T2 sequence (Q8K4Z4 whole entry): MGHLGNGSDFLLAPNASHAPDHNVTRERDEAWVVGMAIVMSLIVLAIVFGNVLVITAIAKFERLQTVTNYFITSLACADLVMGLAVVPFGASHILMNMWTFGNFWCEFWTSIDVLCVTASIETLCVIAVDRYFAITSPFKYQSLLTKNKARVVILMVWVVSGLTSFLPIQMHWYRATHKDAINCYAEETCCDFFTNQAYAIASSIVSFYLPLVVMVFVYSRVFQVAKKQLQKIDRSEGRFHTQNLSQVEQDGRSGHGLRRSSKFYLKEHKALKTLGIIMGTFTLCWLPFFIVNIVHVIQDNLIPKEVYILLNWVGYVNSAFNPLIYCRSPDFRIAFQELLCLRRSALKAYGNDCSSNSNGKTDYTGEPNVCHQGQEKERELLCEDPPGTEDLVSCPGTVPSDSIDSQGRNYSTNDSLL

In the case of `CCCCNCC(O)COc1ccc(Cl)cc1C1C(C(=O)OCC)=C(C)NC(C)=C1C(=O)OCC` (stereo not drawn) [Compound 5], on β-adrenoreceptor (β1) [1], the “Ratio of β1 and Calcium Antagonism” value amounted to 0.10; the β1/β2 stood at 1.33; the “β1 Right Atrium (Slope)” value is on record as “(0.91 ± 0.23)”; the “β1 Value of pA2 Right Atrium” value is on record as 7.37 ± 0.27. Also, on β-adrenoreceptor (β1) [2], the “β1 Left Atrium (Slope)” value is on record as “(0.93 ± 0.19)” and the “β1 Value of pA2 Left Atrium” value was 6.91 ± 0.09. Also, in test [3], the “Lowering of Blood Pressure” value was found to be 74 ± 4 mmHg and the “Reduction of Heart Rate” value is 32 ± 4 beats/min. For the same molecule, at β2, the “β2 Tracheal (slope)” value was “(0.91 ± 0.21)” and the “β2 Value of pA2 Tracheal” value came to 7.24 ± 0.12. Moreover, the “Calcium Antagonism PKCa^−1” value in the test on Calcium worked out at 7.89 ± 0.34. Moreover, in the test on thoracic aorta, the “Aorta Relaxation” value is listed as 33 ± 2%.

Take `CCOC(=O)C1=C(C)NC(C)=C(C(=O)OCC)C1c1cc(Cl)ccc1OCC(O)CNC(C)(C)C` (stereo not drawn) [Compound 4]: on β-adrenoreceptor (β1) [1], the “Ratio of β1 and Calcium Antagonism” value is 0.08; the β1/β2 came to 1.31; the “β1 Right Atrium (Slope)” value is “(0.83 ± 0.12)”; the “β1 Value of pA2 Right Atrium” value was 7.38 ± 0.12. At β-adrenoreceptor (β1) [2], the “β1 Left Atrium (Slope)” value is “(0.92 ± 0.12)” and the “β1 Value of pA2 Left Atrium” value worked out at 6.90 ± 0.35. In test [3], the “Lowering of Blood Pressure” value is listed as 76 ± 6 mmHg and the “Reduction of Heart Rate” value was 33 ± 3 beats/min. On β2, the “β2 Tracheal (slope)” value was “(0.87 ± 0.18)” and the “β2 Value of pA2 Tracheal” value amounted to 7.27 ± 0.32. Moreover, the “Calcium Antagonism PKCa^−1” value in the test on Calcium is 7.94 ± 0.56. Also, the “Aorta Relaxation” value with thoracic aorta amounted to 35 ± 5%.

For the molecule `CCOC(=O)C1=C(C)NC(C)=C(C(=O)OCC)C1c1cc([N+](=O)[O-])ccc1OCC(O)CNC(C)(C)C` (stereo not drawn) [Compound 8], at β-adrenoreceptor (β1) [1], the “Ratio of β1 and Calcium Antagonism” value was determined as 0.08; the β1/β2 worked out at 1.29; the “β1 Right Atrium (Slope)” value is on record as “(0.83 ± 0.21)”; the “β1 Value of pA2 Right Atrium” value is reported as 7.89 ± 0.23. For the same molecule, at β-adrenoreceptor (β1) [2], the “β1 Left Atrium (Slope)” value was “(0.89 ± 0.12)” and the “β1 Value of pA2 Left Atrium” value is on record as 7.03 ± 0.18. In test [3], the “Lowering of Blood Pressure” value is listed as 80 ± 3 mmHg and the “Reduction of Heart Rate” value amounted to 40 ± 4 beats/min. Besides, on β2, the “β2 Tracheal (slope)” value is reported as “(0.92 ± 0.17)” and the “β2 Value of pA2 Tracheal” value was 7.27 ± 0.19. Moreover, the “Calcium Antagonism PKCa^−1” value in the test on Calcium turned out to be 8.09 ± 0.13. For the same molecule, the “Aorta Relaxation” value with thoracic aorta turned out to be 43 ± 3%.

With `CCOC(=O)C1=C(C)NC(C)=C(C(=O)OCC)C1c1ccc(OCC(O)CNCCOc2ccccc2OC)c(Cl)c1` (stereo not drawn) [Compound 7, 4-{{N-{4-[2-hydroxy-3-(2-methoxy-1-oxyethyl-aminobenzene)propoxy]-3-choloro}phenyl} }-2,6-dimethyl-3,5-dicarbo-ethoxy-1,4-dihydropyridine], at β-adrenoreceptor (β1) [1], the “Ratio of β1 and Calcium Antagonism” value was 0.07; the β1/β2 was determined as 1.34; the “β1 Right Atrium (Slope)” value is “(0.91 ± 0.08)”; the “β1 Value of pA2 Right Atrium” value is 7.77 ± 0.34. For the same molecule, at β-adrenoreceptor (β1) [2], the “β1 Left Atrium (Slope)” value is “(0.88 ± 0.27)” and the “β1 Value of pA2 Left Atrium” value worked out at 6.97 ± 0.29. Further, in test [3], the “Lowering of Blood Pressure” value stood at 82 ± 6 mmHg and the “Reduction of Heart Rate” value is on record as 40 ± 2 beats/min. At β2, the “β2 Tracheal (slope)” value was “(0.89 ± 0.21)” and the “β2 Value of pA2 Tracheal” value is listed as 7.28 ± 0.21. The “Calcium Antagonism PKCa^−1” value with Calcium is 8.06 ± 0.27. Further, the “Aorta Relaxation” value in the test on thoracic aorta is 45 ± 5%.

`CCOC(=O)C1=C(C)NC(C)=C(C(=O)OCC)C1c1ccc(OCC(O)CNCCOc2ccccc2OC)c(OC)c1` (stereo not drawn) [Compound 3, 4-{{N-{4-[2-hydroxy-3-(2-methoxy-1-oxyethyl-aminobenzene)propoxy]-3-methoxy)phenyl}}-2,6-dimethyl-3,5-dicarboethoxy-1,4-dihydropyridine]: on β-adrenoreceptor (β1) [1], the “Ratio of β1 and Calcium Antagonism” value was 0.08; the β1/β2 came out at 1.26; the “β1 Right Atrium (Slope)” value was “(0.92 ± 0.27)”; the “β1 Value of pA2 Right Atrium” value stood at 7.47 ± 0.38. On β-adrenoreceptor (β1) [2], the “β1 Left Atrium (Slope)” value is recorded as “(0.89 ± 0.03)” and the “β1 Value of pA2 Left Atrium” value stood at 6.97 ± 0.12. For the same molecule, in test [3], the “Lowering of Blood Pressure” value came out at 78 ± 5 mmHg and the “Reduction of Heart Rate” value is reported as 37 ± 5 beats/min. At β2, the “β2 Tracheal (slope)” value is “(0.92 ± 0.23)” and the “β2 Value of pA2 Tracheal” value came out at 7.31 ± 0.23. Besides, in the test on Calcium, the “Calcium Antagonism PKCa^−1” value came to 7.96 ± 0.27. Besides, the “Aorta Relaxation” value in the test with thoracic aorta was 41 ± 2%.

Regarding `CCOC(=O)C1=C(C)NC(C)=C(C(=O)OCC)C1c1cc([N+](=O)[O-])ccc1OCC(O)CNCCOc1ccccc1OC` (stereo not drawn) [Compound 9], at β-adrenoreceptor (β1) [1], the “Ratio of β1 and Calcium Antagonism” value turned out to be 0.07; the β1/β2 was 1.30; the “β1 Right Atrium (Slope)” value is recorded as “(0.88 ± 0.09)”; the “β1 Value of pA2 Right Atrium” value is 7.78 ± 0.12. Also, on β-adrenoreceptor (β1) [2], the “β1 Left Atrium (Slope)” value is recorded as “(0.91 ± 0.18)” and the “β1 Value of pA2 Left Atrium” value was 7.12 ± 0.09. In test [3], the “Lowering of Blood Pressure” value stood at 85 ± 6 mmHg and the “Reduction of Heart Rate” value is given as 40 ± 5 beats/min. Besides, at β2, the “β2 Tracheal (slope)” value is reported as “(0.88 ± 0.23)” and the “β2 Value of pA2 Tracheal” value is 7.33 ± 0.24. Besides, the “Calcium Antagonism PKCa^−1” value with Calcium is 8.12 ± 0.32. For the same molecule, the “Aorta Relaxation” value in the test with thoracic aorta came to 47 ± 2%.

For the molecule `COC(=O)C1=C(C)NC(C)=C(C(=O)OC)C1c1ccc(OCC(O)CNCCOc2ccccc2OC)c(OC)c1` (stereo not drawn) [Compound 2, 4-{{N-{4-[2-hydroxy-3-(2-methoxy-1-oxyethyl-aminobenzene)propoxy]-3-methoxy}phenyl}}-2,6-dimethyl-3,5-dicarbo-methoxy-1,4-dihydropyridine], at β-adrenoreceptor (β1) [1], the “Ratio of β1 and Calcium Antagonism” value is recorded as 0.09; the β1/β2 is recorded as 1.28; the “β1 Right Atrium (Slope)” value is “(0.88 ± 0.09)”; the “β1 Value of pA2 Right Atrium” value was 7.36 ± 0.65. For the same molecule, at β-adrenoreceptor (β1) [2], the “β1 Left Atrium (Slope)” value was “(0.91 ± 0.21)” and the “β1 Value of pA2 Left Atrium” value came out at 6.93 ± 0.34. Also, in test [3], the “Lowering of Blood Pressure” value amounted to 75 ± 2 mmHg and the “Reduction of Heart Rate” value is recorded as 35 ± 4 beats/min. On β2, the “β2 Tracheal (slope)” value is reported as “(0.88 ± 0.12)” and the “β2 Value of pA2 Tracheal” value came out at 7.20 ± 0.45. For the same molecule, in the test on Calcium, the “Calcium Antagonism PKCa^−1” value is 7.91 ± 0.35. The “Aorta Relaxation” value in the test with thoracic aorta turned out to be 40 ± 4%.
